The test system of series [1] is MeWo cells. As to the kind of experiment: Preliminary annexin V assay. In kind it is cell-based. The note with it: 6-hour treatment, preliminary screen. From the text: (§1) MeWo (ATCC® HTB-65™) and WM115 (ATCC® CRL-1675) cells were purchased from ATCC (Manassas, VA) and maintained in the following: for MeWo: DMEM supplemented with 10% FBS; for WM115: RPMI 1640 supplemented with 10% FBS (10% FBS, 1% stabilized antibiotic anti-mycotic solution).
(§2) In the […] stages of apoptosis, phosphatidylserine (“PS”) is translocated from the inner to the outer leaflet of the cell membrane, exposing PS to the extracellular environment, where it can be detected. Highly fluorescent annexin V conjugates provide quick and reliable detection methods for studying the externalization of PS.
(§3) During the first set of studies, both MeWo and WM115 cells were treated with test compounds at 10 doses starting from 100 μM with 3-fold dilution. Staurosporine was used as positive control. After 6-hour treatment, cell apoptosis was assessed using an annexin V assay. The test compounds evaluated were CV-8684, CV-8685, CV-8686, CV-8687, and CV-8688.
(§4) For cell seeding, cells were harvested and the cell number was determined using Countess® cell counter. Cells were then diluted with culture medium to the desired density. 40 μL of cell suspension per well was added to the required number of wells in a 384-well plate (Corning 3712—clear bottom plate). The final cell density was 6,000 cells/well. After plating, the plates were incubated at 37° C. and 5% CO2 overnight.
(§5) For preparation of compound source plate, each test compound was dissolved in DMSO to 10 mM stock. 3-fold serial dilution was performed using an EVO200™ liquid handler (TECAN) to generate ten concentrations of test compound. 0.1% DMSO was employed as vehicle (negative) control. The compound source plate was then spun at room temperature at 1,000 RPM for 1 minute and agitated using a plate shaker for 2 minutes.
(§6) For compound treatment, 40 nL of compound were transferred from the compound source plate to the 384-well culture plate using liquid handler Echo550 (LabCyte Inc.). After 6-hour incubation, the plates were removed from the incubator for detection.
(§7) For the preliminary annexin V assay, the plates were removed from the incubator and allowed to equilibrate at room temperature for 15 minutes. Culture media was then removed. 20 μL of pre-mixed annexin V-FITC and Hoechst33342 dye working solution were added to each well. The cells were then incubated at room temperature for 20 minutes. The plates were sealed and centrifuged for 1 minute at 1,000 RPM to remove bubbles. Afterward, the plate was read using an Acumen eX3 plate reader.

Series [2] relates to WM115 cells. As to the kind of experiment: Cell morphology after treatment (micrographs). The settings on record: 100 μM of test compound, 6 hours. It counts as cell-based. The protocol: FIGS. 9A-9K are micrographs showing WM115 cell morphology after 6 hours of treatment with various concentrations of CV-8684, CV-8685, CV-8688, DMSO, and staurosporine.
(§8) Typical cell morphology after various treatments is shown in FIGS. 5A-5K, 6A-6K, 7A-7K, 8A-8K, 9A-9K, 10A-10K, 11A-11K, and 12A-12K.

For series [3], the system named is MeWo cells. The series is described as follows: Cell morphology after treatment (micrographs). It counts as cell-based. The settings on record: 100 μM of test compound, 6 hours. The protocol:
FIGS. 5A-5K are micrographs showing MeWo cell morphology after 6 hours of treatment with various concentrations of CV-8684, CV-8685, CV-8688, DMSO, and staurosporine.
as §8

A further series deals with MelanoDerm™ Skin Model. As to the kind of experiment: MelanoDerm assay, visual pigmentation. It counts as cell-based, human. The settings on record: day 7; 200 μM and 50 μM, topical every 48 hours. On the procedure:
FIGS. 16A-16K are photographs of MelanoDerm™ matrices at either day 0 or day 7 after exposure to no treatment (FIG. 16A), sterile deionized water (FIG. 16B), 1% kojic acid (FIG. 16C), 0.2% DMSO (FIG. 16D), 0.05% DMSO (FIG. 16E), 200 μM CV-8684 (FIG. 16F), 50 μM CV-8684 (FIG. 16G), 200 μM CV-8686 (FIG. 16H), 50 μM CV-8686 (FIG. 16I), 200 μM CV-8688 (FIG. 16J), and 50 μM CV-8688 (FIG. 16K).
The MelanoDerm™ Skin Model provided by MatTek Corporation (Ashland, MA) will be used in this study. The MelanoDerm™ tissue consists of normal, human-derived epidermal keratinocytes (NHEKs) and melanocytes (NHMs) which have been cultured to form a multilayered, highly differentiated model of the human epidermis. The NHMs within co-cultures undergo spontaneous melanogenesis leading to tissues of varying levels of pigmentation. The cultures are grown on cell culture inserts at the air-liquid interface, allowing for topical application of skin modulators. […]
At the end of the 7-day trial, the MelanoDerm™ tissues dosed with the negative or positive control, and with each test article will be photographed using a digital camera to aid in the visual assessment of the degree of pigmentation of the tissues at the end of the assay (Day 7). […] Then, the viability of the tissues will be determined by MTT reduction as indicated below.

In series [4] the test system is MeWo cells. The series is described as follows: Additional annexin V assay (3 doses, 6-72 hours). It counts as cell-based. The note with it: 6 hours, doses 100, 10, 1 μM. The protocol:
(§9) To further investigate the impact of test compounds on apoptosis, multiple readouts, covering different stages of apoptosis, were carried out on both MeWo and WM115 cells. Both cell types were treated with test compounds at 3 doses (100 μM, 10 μM, and 1 μM). Staurosporine was used as a positive control. […] The test compounds evaluated were CV-8684, CV-8685, and CV-8688.
(§10) Cell seeding was performed as discussed above with the following exceptions: the final cell density was 4,000 cells/well for 6-hour and 24-hour detections, whereas 2,000 cells/well were used for 48-hour and 72-hour detections. For each time point, 384-well clear bottom plates (Corning 3712) and solid white bottom plates (Corning 3570) were prepared. The plates were incubated as discussed above.
(§11) For preparation of the compound source plate, each test compound was dissolved in DMSO to 10 mM stock. Two additional concentrations were generations by 10-fold dilution to 1 mM and 0.1 mM. Staurosporine was used as positive control and 1% DMSO was employed as vehicle (negative) control. The compound source plate was spun at room temperature at 1,000 RPM for 1 minute and agitated using a plate shaker for 2 minutes.
(§12) 400 nL of test compound was transferred from the compound source plate to 384-well culture plates using Echo550 liquid handler. After 6, 24, 48, and 72 hours, the plates were removed from the incubator for detections.
(§13) Culture media was removed and cells were washed twice with PBS. 20 μL of pre-mixed annexin V-FITC working solution was added to each well. The cells were incubated at room temperature for 20 minutes. Plates were read using Acumen eX3 to count the number of FITC-positive cells.

Series [5] relates to WM115 cells. The series is described as follows: Additional annexin V assay (3 doses, 6-72 hours). It counts as cell-based. The settings on record: 6 hours, doses 100, 10, 1 μM. The protocol: as §9, §10, §11, §12, §13
In series [6] the test system is MeWo cells. As to the kind of experiment: CellTiter-Glo cell viability assay. The note with it: doses 100, 10, 1 μM, 6-72 hours. It counts as cell-based. The protocol: (§14) CellTiter-Glo® 2.0 assay was purchased from Promega.
(§15) CellTiter-Glo® reagents were thawed and equilibrated to room temperature before the experiment. 40 μL of CellTiter-Glo® reagent was then added to each well for detection (at 1:1 ratio to culture medium). The plates were then incubated at room temperature for 30 minutes and read using EnSpire (PerkinElmer) plate reader. The remaining activity was calculated according to the following formula: Remaining Activity (%)=100%×(Lumsample−Lumbkg)/(Lumvehicle−Lumbkg).
(In general: Cellular ATP, detected with luciferase, serves as a proxy for viable cell number.)

In series [7] the test system is WM115 cells. The series is described as follows: CellTiter-Glo cell viability assay. In kind it is cell-based. The settings on record: doses 100, 10, 1 μM, 6-72 hours. The protocol: as §14, §15
Series [8] relates to WM115 cells. The series is described as follows: Preliminary annexin V assay. In kind it is cell-based. The settings on record: 6-hour treatment, preliminary screen.
Text: as §1, §2, §3, §4, §5, §6, §7

Series [9] can be described thus: CellTiter-Glo cell viability assay. It counts as cell-based. The settings on record: human, after 24-hour treatment, read-out: inhibition of cell viability. The protocol:
as §14, §15

The target in series [10] is T1, arylhydrocarbon receptor (AhR) (Homo sapiens, UniProt P35869).
T1 sequence (P35869 11-848): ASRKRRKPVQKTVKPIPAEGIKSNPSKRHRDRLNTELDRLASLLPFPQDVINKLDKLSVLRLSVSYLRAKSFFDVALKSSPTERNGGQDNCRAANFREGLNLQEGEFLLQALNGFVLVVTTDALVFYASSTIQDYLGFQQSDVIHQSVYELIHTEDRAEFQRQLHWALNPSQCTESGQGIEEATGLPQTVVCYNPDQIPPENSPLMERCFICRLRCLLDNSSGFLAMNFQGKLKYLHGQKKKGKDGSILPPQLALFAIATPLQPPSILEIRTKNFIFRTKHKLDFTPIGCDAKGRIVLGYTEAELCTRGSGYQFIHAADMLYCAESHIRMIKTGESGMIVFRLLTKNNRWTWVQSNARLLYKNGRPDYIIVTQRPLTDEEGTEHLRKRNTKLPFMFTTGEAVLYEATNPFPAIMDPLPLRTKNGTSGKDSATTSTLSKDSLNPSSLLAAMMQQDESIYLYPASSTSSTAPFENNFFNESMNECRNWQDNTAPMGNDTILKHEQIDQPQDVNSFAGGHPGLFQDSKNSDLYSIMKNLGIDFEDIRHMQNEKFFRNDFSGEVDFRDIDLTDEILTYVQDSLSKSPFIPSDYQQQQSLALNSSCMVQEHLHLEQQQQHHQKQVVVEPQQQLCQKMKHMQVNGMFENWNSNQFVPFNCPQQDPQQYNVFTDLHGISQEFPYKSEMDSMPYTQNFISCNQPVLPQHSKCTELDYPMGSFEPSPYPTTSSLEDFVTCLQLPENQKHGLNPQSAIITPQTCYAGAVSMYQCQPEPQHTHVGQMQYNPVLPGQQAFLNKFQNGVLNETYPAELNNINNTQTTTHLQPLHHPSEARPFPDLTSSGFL
The settings on record: Wille et al., 2001; cited from earlier work.

Series [11] relates to MeWo cells. The series is described as follows: Lactate dehydrogenase (LDH) release assay. The note with it: after 72-hour incubation.
Experimental: (§16) The LDH assay quantitatively measures lactate dehydrogenase (“LDH”) released into the media from damaged cells as a biomarker for cytotoxicity and cytolysis.
(§17) CytoTox-ONE™ Homogenous Membrane Integrity Assay was purchased from Promega.
(§18) For the LDH release assay, plates were removed from the incubator and equilibrated at room temperature for 15 minutes. Plates were then centrifuged at 1,000 RPM for 1 minute. 20 μL of cell culture medium was transferred into a new 384-well black solid plate. Then, 20 μL of CytoTOX-ONE™was added into each well and incubated at room temperature for 10 minutes. Afterward, 10 μL of stop solution were added to each well, and the plates were agitated at 500 rpm for 1 minute. Plates were read using an excitation wavelength of 560 nm and an emission wavelength of 590 nm on EnSpire. The relative activity was calculated according to the following formula: Relative Activity (%)=100%×(Lumsample−Lumbkg)/(Lumvehicle−Lumbkg).
Series [12] deals with WM115 cells. The series is described as follows: Lactate dehydrogenase (LDH) release assay. The settings on record: after 72-hour incubation.
Experimental: as §16, §17, §18
Series [13] deals with primary human melanocytes. The settings on record: Krämer, et al., 2005; cited from earlier work.

Like-named read-outs stand apart in the source and are kept apart here.

A word on the EC50: it is the midpoint of the concentration-response curve.

For `CC(c1[nH]c2ccccc2c1C=O)c1c[nH]c2ccccc12` (centres unmarked) [CV-8688], the “annexin V staining” value in the series on MeWo cells [1] was “markedly increased”. Moreover, the EC50 with MeWo cells [1] (read-out: EC50 of annexin V staining) came to 909 nM. For the same molecule, the cell morphology result in the series on WM115 cells [2] and in the series with MeWo cells [3] was “significantly affected” in each case. Also, the “pigmentation of MelanoDerm tissues” value in the series on MelanoDerm™ Skin Model was “reduced pigmentation”. In addition, the “apoptosis induction (annexin V)” value with MeWo cells [4] and with WM115 cells [5] was “showed the induction effect within 6 hours of treatment in a dose-dependent manner” each time. The “inhibition of cell viability” value in the series with MeWo cells [6] and in the series with WM115 cells [7] was “inhibited viability of both cell types in a dose-dependent manner” each time.
In the case of `CN[C@@H]1C[C@H]2O[C@@](C)([C@@H]1OC)n1c3ccccc3c3c4c(c5c6ccccc6n2c5c31)C(=O)NC4` [Staurosporine, reference compound], the “annexin V staining” value with MeWo cells [1] and with WM115 cells [8] was “greatly increased” in each case. The cell morphology entry with WM115 cells [2] and with MeWo cells [3] was “significantly affected” in each case. The cytotoxicity at 24 h in [9] (MeWo) and in series [9] (WM115) was 100% each time.
With `O=Cc1c(Cc2c[nH]c3ccccc23)[nH]c2ccccc12` [CV-8684, 2-(1H-indol-3-ylmethyl)-1H-indole-3-carbaldehyde], the AhR agonist activity result in series [10] is on record as “known agonist”. Moreover, the cell morphology result in the series with WM115 cells [2] and with MeWo cells [3] was “significantly affected” each time. For the same molecule, the “pigmentation of MelanoDerm tissues” value in the series on MelanoDerm™ Skin Model is recorded as “reduced pigmentation”. Further, the LDH release entry in the series with MeWo cells [11] and with WM115 cells [12] was “did not induce significant release” each time. For the same molecule, the “apoptosis induction (annexin V)” value with MeWo cells [4] and in the series with WM115 cells [5] was “induced apoptosis at the highest concentration tested” in each case. For the same molecule, the “inhibition of cell viability” value with MeWo cells [6] and with WM115 cells [7] was “dose-dependent inhibition of cell viability” each time. For the same molecule, the apoptosis induction entry in series [13] is “induces apoptosis”.
